Where “and” joins values, the source holds several entries; their conditions need not be identical. Equal values may be shown once.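 Five concentrations, 48 hours, 96-well plates. GI50 = concentration required for 50% inhibition of growth. At the TGI there is no net growth.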
Key:
Test in all cases: NCI tumour cell line growth inhibition, 48 h
NCI-H23 lung = tested on: NCI-H23 lung
CCRF-CEM leukemia = tested on: CCRF-CEM leukemia
RPMI-8226 leukemia = tested on: RPMI-8226 leukemia
CAKI-1 renal = tested on: CAKI-1 renal
EKVX NSCLC = tested on: EKVX NSCLC
HCC-2998 colon = tested on: HCC-2998 colon
COLO 205 colon = tested on: COLO 205 colon
NCI-H226 lung = tested on: NCI-H226 lung
HS 578T breast = tested on: HS 578T breast
HCT-116 colon = tested on: HCT-116 colon

Row | SMILES | GI50 (NCI-H23 lung) | TGI (NCI-H23 lung) | GI50 (CCRF-CEM leukemia) | TGI (CCRF-CEM leukemia) | GI50 (RPMI-8226 leukemia) | TGI (RPMI-8226 leukemia) | GI50 (CAKI-1 renal) | TGI (CAKI-1 renal) | GI50 (EKVX NSCLC) | TGI (EKVX NSCLC) | GI50 (HCC-2998 colon) | TGI (HCC-2998 colon) | GI50 (COLO 205 colon) | TGI (COLO 205 colon) | GI50 (NCI-H226 lung) | TGI (NCI-H226 lung) | GI50 (HS 578T breast) | TGI (HS 578T breast) | GI50 (HCT-116 colon) | TGI (HCT-116 colon)
1 | Cn1cc(-c2[nH]c3cc(NC(=O)[C@H](N)C4CCCCC4)cc4c3c2C=NNC4=O)cn1 | 0.267 µM and 0.197 µM | 9.52 µM and > 10 µM | 0.0345 µM and 0.056 µM | 0.507 µM and > 3.89 µM | 3.18 µM and 3.24 µM | 11.5 µM and > 10 µM | 1.8 µM and 0.705 µM | 10.5 µM and > 7.91 µM | 6.83 µM and 5.99 µM | 21.8 µM and > 10 µM | 0.472 µM and 0.287 µM | 19.9 µM and > 10 µM | 0.922 µM and 0.632 µM | 3.6 µM and > 6.26 µM | 0.963 µM and 0.398 µM | 17.8 µM and > 10 µM | 0.185 µM and 0.247 µM | 2.59 µM and 1.81 µM | 0.399 µM and 0.561 µM | 10.9 µM and > 10 µM
2 | Cc1cc(S(=O)(=O)Nc2nc3ccccc3s2)c(SCc2ccccc2)cc1Cl | 13.8 µM | 26.7 µM | 13.1 µM | 51.3 µM | 9.25 µM | 37.2 µM | 4.12 µM | 17.6 µM | 13.2 µM | 49.2 µM | 13.8 µM | 26.7 µM | 30 µM | 68.4 µM | 19.3 µM | 45.9 µM | 20.2 µM | 62 µM | 15.1 µM | 28.4 µM
3 | CNC(=O)c1cc(Oc2ccc(NC(=O)Nc3ccc(Cl)c(C(F)(F)F)c3)cc2)ccn1 | 2.19 µM and 1.65 µM and 1.95 µM | 9.84 µM and 5.55 µM and 8.21 µM | 3.18 µM and 4.35 µM and 2.27 µM | > 10 µM and > 100 µM and 16.7 µM | 1.5 µM and 2.37 µM and 1.74 µM | 6.25 µM and 6.93 µM and 6.04 µM | 3.21 µM and 2.01 µM and 2.91 µM | > 10 µM and 4.3 µM and 8.81 µM | 3.24 µM and 2.51 µM and 2.67 µM | > 10 µM and 7.86 µM and 13 µM | 3.4 µM and 1.58 µM and 2.81 µM | > 10 µM and 3.11 µM and 8.92 µM | 2.57 µM and 2.9 µM and 2.33 µM | 8.46 µM and 7.66 µM and 6.26 µM | 1.14 µM and 2.29 µM and 2 µM | 9.38 µM and 7.14 µM and 7.27 µM | 2.96 µM and 2.33 µM and 2.59 µM | > 10 µM and 8.47 µM and 16.4 µM | 1.74 µM and 1.5 µM and 1.9 µM | > 10 µM and 4.21 µM and 7.48 µM
4 | CN1CCN(CCCn2c3c(sc4ncccc43)c(=O)n3nnc(-c4ccccc4)c23)CC1 | 1.97 µM | 4.38 µM | 1.57 µM | 4.08 µM | 2.08 µM | 5.3 µM | 1.59 µM | 3.19 µM | 2.08 µM | 5.58 µM | 5.12 µM | 9.97 µM | 4.33 µM | 9.07 µM | 15.1 µM | 31.9 µM | 4.82 µM | 12.3 µM | 1.72 µM | 3.31 µM
5 | COC1C[C@H](O[C@@H]2C[C@H](O[C@@H]3C[C@H](O[C@@H]4C(=O)c5c(cc6cc(O[C@H]7C[C@@H](O[C@H]8C[C@@H](O)[C@H](O)C(C)O8)[C@H](O)C(C)O7)c(C)c(O)c6c5O)C[C@H]4C(OC)C(=O)[C@@H](O)[C@@H](C)O)OC(C)[C@H]3O)OC(C)[C@@H]2O)OC(C)[C@@H]1O (some centres undefined) | 0.0899 µM | 0.695 µM | 0.127 µM | > 32.5 µM | – | – | 8 µM | > 32.5 µM | 0.122 µM | 10.3 µM | 0.0961 µM | 0.615 µM | 0.0571 µM | 0.147 µM | – | – | 0.0743 µM | 4.96 µM | 0.0968 µM | > 32.5 µM
6 | CC1(/C=C/c2ccc(-c3ccccc3)cc2)CCn2cnc3ncnc(c32)N1O (centres undefined) | 0.635 µM | 27.3 µM | 0.153 µM | 41.5 µM | 0.467 µM | 22.7 µM | 0.327 µM | 12.2 µM | 0.305 µM | > 100 µM | 0.409 µM | 34.6 µM | 0.326 µM | 32.8 µM | 0.571 µM | 20.2 µM | 3.37 µM | 30.9 µM | 0.358 µM | 18.6 µM
7 | C=C1C(=O)O[C@H]2[C@H]1CC/C(COC(=O)NCCc1ccc(Br)cc1)=C\CC[C@@]1(C)O[C@@H]21 | 1.72 µM | 3.84 µM | 0.279 µM | 0.847 µM | 0.624 µM | 2.89 µM | 1.42 µM | 2.77 µM | 1.54 µM | 3.29 µM | 1.71 µM | 3.37 µM | 1.82 µM | 3.57 µM | 1.72 µM | 3.37 µM | 2.41 µM | 7.15 µM | 0.477 µM | 1.81 µM
8 | C#Cc1cccc(NC(=O)C2CCCCN2C(=O)CCl)c1 (centres undefined) | 10.7 µM | 28.2 µM | 3.99 µM | 50.1 µM | 18 µM | 51.5 µM | 13.4 µM | 26.3 µM | > 82.5 µM | > 82.5 µM | 28.6 µM | > 82.5 µM | 15.6 µM | 34.7 µM | 52.1 µM | > 82.5 µM | 18.4 µM | 76.4 µM | 13.7 µM | 43.2 µM
9 | COc1cc2cc(C(=O)Nc3ccccc3)c(N)nc2cc1OC | 73.9 µM | > 100 µM | 35.9 µM | > 100 µM | 28.3 µM | > 100 µM | 34.5 µM | > 100 µM | 73.6 µM | > 100 µM | 94.4 µM | > 100 µM | 34 µM | > 100 µM | 54.4 µM | > 100 µM | 62.8 µM | > 100 µM | 40.4 µM | > 100 µM
10 | O=C(C#Cc1ccccc1)N1CCCCC1 | – | > 100 µM | – | > 100 µM | – | > 100 µM | – | > 100 µM | – | > 100 µM | – | > 100 µM | – | > 100 µM | – | > 100 µM | – | > 100 µM | – | 67.5 µM
11 | CN(N=O)N1C(=O)SCC(c2ccccc2)(c2ccccc2)C1=O | – | > 100 µM | – | > 100 µM | – | 67.6 µM | – | > 100 µM | – | > 100 µM | – | > 100 µM | – | > 100 µM | – | 52.7 µM | – | > 100 µM | – | > 100 µM
12 | O=C(O)[C@@H](Cc1ccccc1)NS(=O)(=O)c1ccc(-c2ccccc2)cc1 | > 100 µM | > 100 µM | > 100 µM | > 100 µM | – | – | > 100 µM | > 100 µM | > 100 µM | > 100 µM | > 100 µM | > 100 µM | > 100 µM | > 100 µM | > 100 µM | > 100 µM | > 100 µM | > 100 µM | > 100 µM | > 100 µM
13 | CC(=O)Nc1ccc2c(c1)[nH]c(=O)c1cc(NC(C)=O)ccc12 | > 100 µM | > 100 µM | 53.5 µM | > 100 µM | > 100 µM | > 100 µM | > 100 µM | > 100 µM | > 100 µM | > 100 µM | > 100 µM | > 100 µM | > 100 µM | > 100 µM | > 100 µM | > 100 µM | > 100 µM | > 100 µM | > 100 µM | > 100 µM
